Consider 31 molecules from patent US10562891B2, “Quinazolinones as PARP14 inhibitors” (Ribon Therapeutics Inc., priority 2017, dated 2020).

Molecules are shown by their SMILES. Where a name gives a salt, the structure may show the parent alone.

For orientation: IC50 means the concentration needed to halve the response being measured. A high value points to weaker potency in that assay.

This test deals with catalytic domain of human PARP14 (Homo sapiens (Human), UniProt Q460N5). The test is described as follows: Enzymatic assay for inhibition of PARP14 (DELFIA, auto-modification with biotin-NAD). The format is biochemical. The settings on record: auto-modification of PARP14 by biotin-NAD, 50 nM PARP14, 3 μM biotin-NAD. Summed up: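 His-TEV-tagged PARP14 catalytic domain (50 nM) preincubated with compound 30 min at 25 °C, then auto-modified with 3 μM biotin-NAD for 3 h at 25 °C in HEPES pH 8 buffer with DTT. IC50 from 4-parameter fit, rucaparib and DMSO as controls.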
catalytic domain of human PARP14, sequence (Q460N5 1611-1801): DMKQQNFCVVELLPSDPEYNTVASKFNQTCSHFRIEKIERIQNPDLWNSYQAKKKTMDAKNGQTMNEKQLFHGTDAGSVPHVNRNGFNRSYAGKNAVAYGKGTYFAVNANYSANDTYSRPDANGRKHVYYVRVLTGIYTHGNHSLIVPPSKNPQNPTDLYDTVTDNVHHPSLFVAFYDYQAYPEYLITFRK
In turn, `O=c1[nH]c(CSC2CCOCC2)nc2cc(NCCC3CCOCC3)ccc12` [Example 256, 7-((2-(Tetrahydro-2H-pyran-4-yl)ethyl)amino)-2-(((tetrahydro-2H-pyran-4-yl)thio)methyl)quinazolin-4(3H)-one] returned a half-maximal inhibitory concentration (IC50) of less than 1000 nM.
For `O=c1[nH]c(CSC2CCOCC2)nc2cc(OCC3COC3)cc(F)c12` [Example 343] the value was less than 1000 nM; for `N#Cc1cccc2c(=O)[nH]c(CSC3CCOCC3)nc12` [Example 28, 4-Oxo-2-(((tetrahydro-2H-pyran-4-yl)thio)methyl)-3,4-dihydroquinazoline-8-carbonitrile], greater than 10000 nM.
`CN(C)[C@H]1CC[C@H](SCc2nc3cc(OCC4CC4)cc(F)c3c(=O)[nH]2)CC1` [Example 404] came in with an IC50 of less than 1000 nM.
For `O=c1[nH]c(CSC2CCOCC2)nc2cc(Nc3ccncc3)ccc12` [Example 86, 7-(Pyridin-4-ylamino)-2-(((tetrahydro-2H-pyran-4-yl)thio)methyl)quinazolin-4(3H)-one] the value was 1000 to 10000 nM; for `O=c1[nH]c(CSC2CCOCC2)nc2cc(NC3CCCCC3(F)F)cc(F)c12` (stereo not shown) [Example 345], less than 1000 nM; for `O=c1[nH]c(CSC2CCOCC2)nc2cc(NCc3ccncc3)ccc12` [Example 117, 7-((Pyridin-4-ylmethyl)amino)-2-(((tetrahydro-2H-pyran-4-yl)thio)methyl)quinazolin-4(3H)-one], 1000 to 10000 nM.
`O=c1[nH]c(CS[C@H]2CC[C@@H](O)CC2)nc2cc(NC3CCCC3)ccc12` [Example 103, 7-(Cyclopentylamino)-2-(((cis-4-hydroxycyclohexyl)thio)methyl) quinazolin-4(3H)-one]: the IC50 was less than 1000 nM.
For the molecule `O=c1[nH]c(CSC2CCN(C3CS(=O)(=O)C3)CC2)nc2cc(NC3CCCC3)cc(F)c12` [Example 273, 7-(Cyclopentylamino)-2-(((1-(1,1-dioxidothietan-3-yl)piperidin-4-yl)thio)methyl)-5-fluoroquinazolin-4(3H)-one], the 50% inhibitory concentration (IC50) is less than 1000 nM.
In the case of `O=c1[nH]c(CS[C@H]2CC[C@H](O)CC2)nc2cc(NC3CCN(CCC(F)(F)F)CC3)c(F)c(F)c12` [Example 354], the IC50 was less than 1000 nM.
For `CC1(C)CC(SCc2nc3cc(OCC4CCC4)cc(F)c3c(=O)[nH]2)CCO1` (stereo not shown) [Example 308, 7-(Cyclobutylmethoxy)-2-(((2,2-dimethyltetrahydro-2H-pyran-4-yl)thio)methyl)-5-fluoroquinazolin-4(3H)-one] the value was less than 1000 nM; for `CC(C)(C)COc1cc(F)c2c(=O)[nH]c(CSC3CCOCC3)nc2c1` [Example 416], less than 1000 nM; for `O=c1[nH]c(CSC2CCOCC2)nc2cc(OCC3CCOC3)cc(F)c12` (stereo not shown) [Example 238, 5-Fluoro-2-(((tetrahydro-2H-pyran-4-yl)thio)methyl)-7-((tetrahydrofuran-3-yl)methoxy)quinazolin-4(3H)-one], less than 1000 nM.
For `N#Cc1cc(OCC2CCOC2)cc2nc(CSC3CCOCC3)[nH]c(=O)c12` (stereo not shown) [Example 383] the value was less than 1000 nM; for `O=c1[nH]c(CSC2CCCCC2)nc2cc(OCC3CCC3)cc(F)c12` [Example 309, 7-(Cyclobutylmethoxy)-2-((cyclohexylthio)methyl)-5-fluoroquinazolin-4(3H)-one], less than 1000 nM; for `O=c1[nH]c(CS[C@@H]2CCNC[C@H]2F)nc2cc(OCC3CC3)cc(F)c12` (relative stereo) [Example 297, 7-(Cyclopropylmethoxy)-5-fluoro-2-(((trans-3-fluoropiperidin-4-yl)thio)methyl)quinazolin-4(3H)-one hydrochloride], 1000 to 10000 nM.
For `CC(=O)N1CCC(COc2cc(F)c3c(=O)[nH]c(CS[C@H]4CC[C@@](C)(O)CC4)nc3c2)CC1` [Example 417] the value was less than 1000 nM; for `COc1ccccc1Nc1ccc2c(=O)[nH]c(CSC3CCOCC3)nc2c1` [Example 84, 7-((2-Methoxyphenyl)amino)-2-(((tetrahydro-2H-pyran-4-yl)thio)methyl)quinazolin-4(3H)-one], 1000 to 10000 nM; for `O=c1[nH]c(CSC2CCOCC2)nc2cc(NC3CCOCC3)ccc12` [Example 114, 7-((Tetrahydro-2H-pyran-4-yl)amino)-2-(((tetrahydro-2H-pyran-4-yl)thio)methyl)quinazolin-4(3H)-one], 1000 to 10000 nM.
For `Cc1cccc2c(=O)[nH]c(CS[C@H]3CCC[C@@H](N)CC3)nc12` (relative stereo) [Example 55, 2-(((cis-4-Aminocycloheptyl)thio)methyl)-8-methylquinazolin-4(3H)-one Trifluoroacetate], the 50% inhibitory concentration (IC50) lay in the range of 1000 to 10000 nM.
For the molecule `O=c1[nH]c(CSC2CCOCC2)nc2cc(NC3CCNC3)ccc12` (stereo not shown) [Example 130, 7-(Pyrrolidin-3-ylamino)-2-(((tetrahydro-2H-pyran-4-yl)thio)methyl) quinazolin-4(3H)-one], the IC50 fell in the range of 1000 to 10000 nM.
For `O=c1[nH]c(CSC2CCOCC2)nc2cc(NC3CCCC3)ncc12` [Example 189, 7-(cyclopentylamino)-2-(((tetrahydro-2H-pyran-4-yl)thio)methyl)pyrido[4,3-d]pyrimidin-4(3H)-one] the value was 1000 to 10000 nM.
`O=c1[nH]c(CS[C@H]2CC[C@@H](O)CC2)nc2cc(OCC3CCOCC3)cc(F)c12` [Example 365] showed a half-maximal inhibitory concentration (IC50) of less than 1000 nM.
For `Cc1cccc2c(=O)[nH]c(CSC3CCN(Cc4cnn(Cc5ccccc5)c4)CC3)nc12` [Example 154, 2-(((1-((1-Benzyl-1H-pyrazol-4-yl)methyl)piperidin-4-yl)thio)methyl)-8-methylquinazolin-4(3H)-one trifluoroacetate] the value was less than 1000 nM; for `CC(C)(C)CNc1cc2nc(CSC3CCOCC3)[nH]c(=O)c2c(F)c1F` [Example 384], less than 1000 nM.
For `NC[C@]1(F)CC[C@H](SCc2nc3cc(NC4CCCC4)cc(F)c3c(=O)[nH]2)CC1` [Example 244, 2-(((cis-4-(Aminomethyl)-4-fluorocyclohexyl)thio)methyl)-7-(cyclopentylamino)-5-fluoroquinazolin-4(3H)-one Trifluoroacetate] the value was less than 1000 nM; for `CN1CCN([C@H]2CC[C@@H](Nc3cc4nc(CSC5CCOCC5)[nH]c(=O)c4c(F)c3F)CC2)CC1` [Example 347], less than 1000 nM; for `CC(C)Cc1ccc2c(=O)[nH]c(CSC3CCOCC3)nc2c1` [Example 202, 7-Isobutyl-2-(((tetrahydro-2H-pyran-4-yl)thio)methyl)quinazolin-4(3H)-one], 1000 to 10000 nM.
For `COc1cccc(Nc2ccc3c(=O)[nH]c(CSC4CCOCC4)nc3c2)c1` [Example 83, 7-((3-Methoxyphenyl)amino)-2-(((tetrahydro-2H-pyran-4-yl)thio)methyl)quinazolin-4(3H)-one], the 50% inhibitory concentration (IC50) was in the range of 1000 to 10000 nM.
Molecule `O=c1[nH]c(CS[C@H]2CC[C@@H](CO)CC2)nc2cc(NC3CCCCC3)ccc12` [Example 137, 7-(Cyclohexylamino)-2-(((cis-4-(hydroxymethyl)cyclohexyl)thio)methyl) quinazolin-4(3H)-one] had an IC50 of less than 1000 nM.
The figure for `O=c1[nH]c(CSC2CCOCC2)nc2cc(N[C@H]3CC[C@H](N4CCOCC4)CC3)cc(F)c12` [Example 233, 5-Fluoro-7-((trans-4-morpholinocyclohexyl)amino)-2-(((tetrahydro-2H-pyran-4-yl)thio)methyl)quinazolin-4(3H)-one Trifluoroacetate] is less than 1000 nM.
